Five molecules from BindingDB's records for doi:10.1016/j.bmcl.2010.07.082 (Ligand Pharmaceuticals, 2010) can be followed below.

What is called IC50 is the point on the concentration scale where inhibition reaches its midpoint.

A short description of the assay: Antagonist activity at CCR1 in human THP1 cells assessed as inhibition of CCL3-induced chemotaxis after 3 hrs.
Consider `O=C(Nc1ccc(C(F)(F)F)cc1)N1CCCC1c1nccn1Cc1ccc(Cl)cc1` (stereo not given) [2-(1-(4-chlorobenzyl)-1H-imidazol-2-yl)-N-(4-(trifluoromethyl)phenyl)pyrrolidine-1-carboxamide], for which the IC50 was found to be 16 nM. `O=C(Nc1ccc(C(F)(F)F)cc1)N1CCC[C@@H]1c1ncnn1Cc1ccc(Cl)cc1` [(R)-2-(1-(4-chlorobenzyl)-1H-1,2,4-triazol-5-yl)-N-(4-(trifluoromethyl)phenyl)pyrrolidine-1-carboxamide]: the IC50 was 22 nM.

For the molecule `O=C(Nc1ccc(C(F)(F)F)cc1)N1CCC[C@@H]1c1nnnn1Cc1ccc(Cl)cc1` [(R)-2-(1-(4-chlorobenzyl)-1H-tetrazol-5-yl)-N-(4-(trifluoromethyl)phenyl)pyrrolidine-1-carboxamide], the IC50 was 6.5 nM. `O=C(Nc1ccc(C(F)(F)F)cc1)N1CCC[C@@H]1c1nncn1Cc1ccc(Cl)cc1` [(R)-2-(4-(4-chlorobenzyl)-4H-1,2,4-triazol-3-yl)-N-(4-(trifluoromethyl)phenyl)pyrrolidine-1-carboxamide]: the IC50 was 4 nM. With `Cc1nnc([C@H]2CCCN2C(=O)Nc2ccc(C(F)(F)F)cc2)n1Cc1ccc(Cl)cc1` [(R)-2-(4-(4-chlorobenzyl)-5-methyl-4H-1,2,4-triazol-3-yl)-N-(4-(trifluoromethyl)phenyl)pyrrolidine-1-carboxamide], the IC50 amounted to 2.9 nM.
